# In PMC7690585, “Target-Mediated Brain Tissue Binding for Small Molecule Inhibitors of Heat Shock Protein 90” (Pharmaceutics, 2020):
# Experiment: in vitro
# Settings: NMRI, mouse, brain homogenate, pH 7
# Method: Brain tissue from Naval Medical Research Institute (NMRI) mice was homogenized in phosphate buffer (1 g: 2 mL) and stored in −80 °C freezer before use. For dialysis experiment, 150 µL of brain homogenate (fresh blood collected on EDTA-K2 and diluted 1:1 with phosphate buffer or plasma) was added to one compartment of a dialysis plate (assembled according to the manufacturer instructions with a dialysis membrane between the 2 compartments) against 150 µL of phosphate buffer pH 7. The test compound was added to the compartment with brain homogenate (or plasma) and the plate was incubated in an incubator with a 5% CO2 and rotating at 150 rpm for 5 h. At the end of the incubation time, aliquots of 90 µL of samples were removed from both the buffer and the brain homogenate compartments. The aliquots were added to 120 µL of acetonitrile containing the internal standard. The mixture was centrifuged at 4000 rpm for 10 min and the supernatant was collected for LC-MS/MS analysis. All equilibrium dialysis studies were performed in triplicate at each tested concentration.
# Binding to brain tissues was assessed using 6 different concentrations of test items ranging from 0.3 to 100 µM. Warfarin was used as control.
# Determination of fractions unbound was conducted according to the equations below:fu = Creceiver (CT0 − Creceiver)(1)
# In brain homogenate (blood or plasma):(2) % Undiluted fu=100 ×1/D/1/fu−1+1/D (3) % Recovery=100 × Creceiver +Cdonor/CT0 where
# Dilution factor (D) is determined as 3 in this assay.
smiles,measurement,setting,value
CC(=O)CC(c1ccccc1)c1c(O)c2ccccc2oc1=O (stereo not shown) [Warfarin],Ratio (30 µM/1 µM) Unbound Fractions in Brain,5 h,1.5
same,"fraction unbound at 5 h, 0.3 µM",,0.086 ± 0.002
same,"fraction unbound at 5 h, 1 µM",,0.112 ± 0.001
same,"fraction unbound at 5 h, 3 µM",,0.143 ± 0.005
same,"fraction unbound at 5 h, 10 µM",,0.143 ± 0.006
same,"fraction unbound at 5 h, 30 µM",,0.168 ± 0.006
same,"fraction unbound at 5 h, 100 µM",,0.179 ± 0.009
